Data: US12692232B2, “Indole carboxamide compound, preparation therefor and use thereof” (NANJING RUISHUNING MEDICAL TECHNOLOGY CO., LTD., priority 2021, dated 2026)

System: mouse model of focal segmental glomerulosclerosis
Experiment: Mouse model of focal segmental glomerulosclerosis (adriamycin)
Assay type: in vivo
Settings: for serum urea nitrogen level: model 16.08±0.23; for urine protein level: model 547.0±106.3; for glomerular lesions, renal tissue pathology (H&E, PAS, Sirius red stain): FIG. 1; for glomerular lesions, renal tissue pathology (H&E, PAS, Sirius red stain) / body weight compared with the FSGS group: control compound 25 mg/kg, irbesartan 50 mg/kg; for body weight compared with the FSGS group: gavage daily 6 weeks, compound 1-1 10, 25, 50 mg/kg
Procedure: The method was as follows:
Each mouse in the model group, the treatment groups and the positive control group was injected once into the tail vein with adriamycin at a dose of 8 mg/kg, and each mouse in the control group was injected once into the tail vein with saline at the same dose. The mice in the control group and model group were administered equal amount of saline by gavage for 6 weeks, and the mice in other group were administered corresponding compound in doses by gavage at a fixed time each day for 6 weeks after modelling with adriamycin. The body weights were recorded weekly and urine samples were collected.
Collection of urine samples: animals were placed in separate metabolic cages by group on days 0, 7, 14, 21, 28, 35, and 42 after modelling, with free access to water and no access to food, and urine samples were collected from each group of mice.
Determination of urine protein level using Coomassie brilliant blue (CBB) method: urine protein level was determined by urine protein quantitative test kit (Nanjing Jiancheng Bioengineering Institute). CBB working solution was prepared according to the kit instructions. 0.05 mL of each urine sample was mixed with 3 mL of CBB working solution, the mixture was allowed to stand for 5 min, and the absorbance value of each sample was determined at 595 nm. The urine protein levels samples of each group was calculated according to the protein standardization formula: urine protein level (mg/L)=(measured OD−blank OD)/(standard OD−blank OD)×563 mg/L.
Collection of serum samples: orbital blood from each mouse was collected in an EP tube, placed at 37° C. for 20 minutes, and centrifuged to obtain an upper layer of serum.
Collection of plasma samples: orbital blood from each mouse was collected in an anticoagulation tube, mixed well and stored at 4° C. for later use.
Determination of urea nitrogen level in plasma by diacetyl monoxime method: urea nitrogen level was determined by using blood urea nitrogen (BUN) test kit (Nanjing Jiancheng Bioengineering Institute). According to the kit instructions, 0.05 mL of anticoagulated plasma sample was mixed with 1 mL of oxime solution and 1 mL of acid working solution, and the mixtures were placed in a boiling water bath for 15 minutes. A UV-visible spectrophotometer was used to determine the absorbance values of each tube at a wavelength of 520 nm. Urea nitrogen levels in plasma samples of each group were calculated according to the formula: Urea nitrogen level (mmol/L)=(measured OD value−blank OD value)/(standard OD value−blank OD value)×10 mmol/L.
Collection of kidney tissue samples: kidneys were taken from mice after anesthesia, cut horizontally, and the upper part of the kidneys was embedded in OCT embedding box, sliced with frozen slicer and stored at −20° C.
H&E staining was used to assess pathological glomerular changes, and the procedure was as follows: frozen sections were fixed with 95% ethanol for 2 minutes, hydrated with distilled water, stained with hematoxylin for 3 minutes, washed with distilled water for 3 minutes, differentiated using 1% hydrochloric acid in ethanol for 10 seconds, washed with distilled water for 30 seconds, returned to blue in running water for 5 minutes, washed in distilled water for 30 seconds, stained with eosin for 30 seconds, washed with 75% and 85% ethanol for 20 seconds each, dehydrated rapidly with 95% ethanol for 1 minute, dehydrated with anhydrous ethanol, cleared to transparency in xylene (1 minute×3), and finally sealed with neutral balsam and photographed with a biomicroscope.

| SMILES | serum urea nitrogen level reduced compared with the model group (25 mg/kg gavage, 6 weeks) | urine protein level reduced compared with the model group (25 mg/kg gavage, 6 weeks) | serum urea nitrogen level (25 mg/kg gavage, 6 weeks) | urine protein level (25 mg/kg gavage, 6 weeks) | glomerular lesions, renal tissue pathology (H&E, PAS, Sirius red stain) | body weight compared with the FSGS group | serum urea nitrogen level vs model group (10 mg/kg gavage, 6 weeks) | urine protein level vs model group (10 mg/kg gavage, 6 weeks) | serum urea nitrogen level reduced compared with the model group (50 mg/kg gavage, 6 weeks) | urine protein level reduced compared with the model group (50 mg/kg gavage, 6 weeks) | serum urea nitrogen level (50 mg/kg gavage, 6 weeks) | urine protein level (50 mg/kg gavage, 6 weeks) |
| --- | --- | --- | --- | --- | --- | --- | --- | --- | --- | --- | --- | --- |
| Cn1c(C(=O)NCCC(=O)O)cc2ccccc21 [3-[(1-methyl-1H-indole-2-carbonyl)amino]propionic acid, reference compound] | 20.3% | 22.6% | 12.82 ± 0.46 mmol/L | 423 ± 64.7 mg/L | glomerular mesangial matrix hyperplasia is reduced compared with the model group, but increased compared with the treatment groups of compound 1-1 | increased body weights | – | – | – | – | – | – |
| CC(=O)OCCCNC(=O)c1c(C=O)c2ccccc2n1C [compound 1-1, propyl 3-[(3-formyl-1-methyl-1H-indole-2-carbonyl)amino]acetate] | 27.2% | 28.6% | 11.7 ± 0.33 mmol/L | 390 ± 74.6 mg/L | significantly ameliorates glomerular lesions caused by FSGS | increased body weights | significantly reduced | significantly reduced | 29.8% | 42.7% | 11.29 ± 0.40 mmol/L | 313 ± 57.6 mg/L |
